# Experimental data from EP4701641B1, “5-AMINO-2,3-DIHYDRO-1,4-PHTHAL[…] THE PROPHYLAXIS AND TREATMENT OF […]” (MetrioPharm AG, priority 2023, dated 2025).
# Where two headings read alike, the source gives them in different places.
# Tests used:
# [1] = test system: Coronary artery smooth muscle cells; details: added 1 hour before stimulation with IL-1β, TNF-α and IFN-γ, 48 hours in culture, triplicates averaged
# Description: Coronary artery smooth muscle cells pooled from human donors (n = 3) were commercially acquired and cultured according to the recommendations of the manufacturer. They were stimulated with IL-1β, TNF-α and IFN-γ to emulate conditions of vascular inflammation. The […] were cultured in 96 well-plates until confluence. Details are described in Kunkel et al. (2004) FASEB J 18: 1279-1281). […] The substance was added at the indicated concentration 1 hour before stimulation and remained in culture for 48 hours. Each plate contained positive and negative controls (non-stimulated cells) as well as vehicle controls (buffer solution). Direct ELISA (enzyme-linked immunosorbent assay) was used to measure thrombomodulin levels. Soluble factors from supernatants were quantified using capture ELISA.
# Measurements were carried out in triplicates which were then averaged and divided by the average of vehicle control samples. Vehicle control samples were taken as 100%.
# [2] = test system: hospitalized patients with moderate to severe COVID-19
# SARS-CoV-2 = SARS-CoV-2 infected cells; from WO 2021/249667; cited from earlier work
# D-dimer = details: for D-dimer concentration (median of the group): plasma
# Excerpt: The study was randomized, double-blind, and placebo-controlled, with enrollment at 20 IEC (independent ethics committee)-approved sites across six countries (Bulgaria, France, Hungary, Italy Romania, Spain); a list of all participating sites is published on clinicaltrials.gov. (NCT04932941). This study was partially funded by the COVID-19 Horizon Europe work programme (Project No.: 101046182). The funder of the study had no role in study design, data collection, data analysis, data interpretation, or writing of the report.
# Further details on the in- and exclusion criteria are available on cliniclatrials.gov NCT04932941.
# Stratification factors included baseline COVID-19 severity and age-class (aged ≤ 65 years versus > 65 years).
# Patients were treated for 28 days. […] These patients were discharged from the hospital before and received medication (verum or placebo) for continuing self-treatment for the remaining time at home. After 60 days there was a follow-up visit.
# The D-dimer level is an important prognostic marker for COVID-19 severity. An elevated D-dimer level is associated with thromboembolic complications. For monitoring the development of this biomarker throughout the study blood samples were taken at Days 1, 7, 14, 21, 28 and 60. The D-dimer concentration was determined (PPD Central Lab, Zaventem, Belgium) from the plasma by means of monoclonal antibodies quantified in an ELISA (cf. Olson (2015) Adv Clin Chem 69: 1 - 46; Johnson et al. (2019) Am J Hematol 94: 833-839).
smiles,measurement,setting,value
"Nc1cccc2c(=O)[nH][nH]c(=O)c12.[Na] [5-amino-2,3-dihydro-1,4-phthalazinedione sodium salt]",thrombomodulin release (vehicle control = 100%),[1]; 62.5 µM,127.4%
same,thrombomodulin release (vehicle control = 100%),[1]; 250 µM,115.1%
same,thrombomodulin release (vehicle control = 100%),[1]; 1 mM,159.6%
same,thrombomodulin release (vehicle control = 100%),[1]; 4 mM,255.9%
same,disease resolution by Day 14 (patients),"[2]; 300 mg BID plus SoC, placebo group 31/43",69/82
same,effect on hemostasis (clinical parameters or adverse side effects),[2]; clinical study in COVID-19 patients,no evidence
same,replication of the virus,SARS-CoV-2,suppress dose-dependently
same,D-dimer concentration (median of the group),D-dimer; day 60 (follow-up visit),138.0 ng/mL DDU
same,modelled effect on D-dimer levels compared to placebo,"D-dimer; post-hoc analysis, modelled, p<0.001, Fig. 1",significant decrease
same,D-dimer concentration (median of the group),"D-dimer; treatment day 1, 300 mg BID plus SoC",235.5 ng/mL DDU
same,D-dimer concentration (median of the group),"D-dimer; treatment day 7, 300 mg BID plus SoC",205.0 ng/mL DDU
same,D-dimer concentration (median of the group),"D-dimer; treatment day 14, 300 mg BID plus SoC",171.0 ng/mL DDU
same,D-dimer concentration (median of the group),"D-dimer; treatment day 21, 300 mg BID plus SoC",208.0 ng/mL DDU
same,D-dimer concentration (median of the group),"D-dimer; treatment day 28, 300 mg BID plus SoC",172.0 ng/mL DDU
